# Reference: patent US6528528B2 (Warner-Lambert Company, priority 1997, dated 2003)
# Molecular target: T1, rabbit reticulocyte 15-LO (Oryctolagus cuniculus, UniProt P12530)
# T1 construct: Fifteen-lipoxygenase was obtained from phenylhydrazine-treated rabbits and purified per the method of Rapoport; from tissue; host or cells: reticulocytes of phenylhydrazine-treated rabbits
# T1 sequence (P12530 1-663): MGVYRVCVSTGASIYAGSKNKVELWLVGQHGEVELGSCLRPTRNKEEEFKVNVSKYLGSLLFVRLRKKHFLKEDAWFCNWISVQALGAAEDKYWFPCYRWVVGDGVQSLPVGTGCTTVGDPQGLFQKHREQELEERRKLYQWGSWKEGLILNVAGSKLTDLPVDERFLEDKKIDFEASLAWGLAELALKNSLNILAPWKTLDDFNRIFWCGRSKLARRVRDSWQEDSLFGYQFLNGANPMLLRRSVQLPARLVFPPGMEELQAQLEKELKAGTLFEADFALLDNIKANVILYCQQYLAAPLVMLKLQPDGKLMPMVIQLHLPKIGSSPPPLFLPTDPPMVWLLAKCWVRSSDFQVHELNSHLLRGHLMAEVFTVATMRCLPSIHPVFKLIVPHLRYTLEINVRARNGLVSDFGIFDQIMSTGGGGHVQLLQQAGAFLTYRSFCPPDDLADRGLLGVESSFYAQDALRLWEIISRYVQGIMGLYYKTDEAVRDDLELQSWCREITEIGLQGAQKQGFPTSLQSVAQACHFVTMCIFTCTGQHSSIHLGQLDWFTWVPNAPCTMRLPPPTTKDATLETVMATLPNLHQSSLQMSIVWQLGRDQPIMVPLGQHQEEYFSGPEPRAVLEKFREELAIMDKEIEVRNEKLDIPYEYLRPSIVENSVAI
# Experiment: Rabbit Reticulocyte 15-LO Assay (h15LO)
# Format: biochemical
# Settings: Table 2; 2U rabbit reticulocyte 15-LO, 174 μM linoleic acid, 15 minutes at 4° C.
# Description: Rabbit Reticulocyte 15-LO Assay (h15LO)
# The present 15-LO assay takes advantage of the ability of 15-LO to oxidize the fatty acid linoleic acid to the hydroperoxy fatty acid 13-(S)HPODE, resulting in the formation of a conjugated diene. The 15-LO inhibitors are incubated with 15-LO enzyme in the presence of linoleic acid substrate. The initial reaction is compared to an uninhibited (maximal) reaction to yield % inhibition. […] This prevents artificial nonenzyme lipid peroxidation and product breakdown in the sample. 13-HPODE is quantitated by comparing peak areas of individual samples with those from a standard curve generated using authentic 13-HODE. This assay is performed using 2U of rabbit reticulocyte 15-LO in the presence of 174 μM linoleic acid. The reaction is incubated for 15 minutes at 4° C. The total reaction volume is 100 μL in PBS containing 0.2% Na cholate.
# Fifteen-lipoxygenase was obtained from phenylhydrazine-treated rabbits and purified per the method of Rapoport (Rapoport S. M., Schewe T., Wiesner R., et al. The lipoxygenase of reticulocytes. Purification, characterization, and biological dynamics of the lipoxygenase; its identity with the respiratory inhibitors of the reticulocyte. European Journal of Biochemistry, 1979;96:545-561). The following chemicals were purchased and used as received: linoleic acid (NUJCheck Prep), 13-HPODE (Biomol Research Labs), sodium cholate (Sigma), trimethyl phosphite (Fluka Chemicals).
row,Structure (SMILES),IC50 [nM]
1,"CCN(CC)c1ccc(CNc2cc(C(=O)Nc3ccccc3)ccc2OC)cc1 [Example 211, 3-(4-Diethylamino-benzylamino)-4-methoxy-N-phenyl-benzamide]",69
2,"COc1ccc(C(=O)Nc2ccccc2)cc1NCc1cccc(O)c1 [Example 213, 3-(3-Hydroxy-benzylamino)-4-methoxy-N-phenyl-benzamide]",79
3,"COc1ccc(C(=O)Nc2ccccc2)cc1NCc1cccc([N+](=O)[O-])c1 [Example 215, 4-Methoxy-3-(3-nitro-benzylamino)-N-phenyl-benzamide]",110
4,"COc1ccc(CNc2cc(C(=O)Nc3ccccc3)ccc2OC)cc1 [Example 216, 4-Methoxy-3-(4-methoxy-benzylamino)-N-phenyl-benzamide]",118
5,"COc1ccc(C(=O)Nc2ccccc2)cc1NCc1cccc2ccccc12 [Example 217, 4-Methoxy-3-[(naphthalen-1-ylmethyl)-amino]-N-phenyl-benzamide]",129
6,"COc1ccc(C(=O)Nc2ccccc2)cc1NCc1cc(C)cc(C)c1 [Example 218, 4-Methoxy-3-(3,5-dimethyl-benzylamino)-N-phenyl-benzamide]",161
7,"COc1ccc(C(=O)Nc2ccccc2)cc1NCc1ccc(OC(C)=O)cc1 [Example 220, Acetic acid 4-[(2-methoxy-5-phenylcarbamoyl-phenylamino)-methyl]-phenyl Ester]",509
8,"COC(=O)c1ccc(CNc2cc(C(=O)Nc3ccccc3)ccc2OC)cc1 [Example 221, 4-[(2-Methoxy-5-phenylcarbamoyl-phenylamino)-methyl]-benzoic Acid Methyl Ester]",551
9,"COc1ccc(C(=O)Nc2ccccc2)cc1NCc1ccccc1C [Example 223, 4-Methoxy-3-(2-methyl-benzylamino)-N-phenyl-benzamide]",892

# Further lines, results first:
row,IC50 [nM],Structure (SMILES)
1,24,"COc1ccc(C(=O)Nc2ccc(F)c(F)c2)cc1NCc1cccc(O)c1 [Example 210, 3-(3-Hydroxy-benzylamino)-4-methoxy-N-(3,4-difluoro-phenyl)-benzamide]"
2,69,"COc1ccc(C(=O)Nc2ccc(F)c(F)c2)cc1NCc1cccc(F)c1 [Example 212, 3-(3-Fluoro-benzylamino)-4-methoxy-N-(3,4-difluoro-phenyl)-benzamide]"
3,89,"COc1ccc(C(=O)Nc2ccccc2)cc1NCc1cccc(F)c1 [Example 214, 4-Methoxy-3-(3-fluoro-benzylamino)-N-phenyl-benzamide]"
4,166,"COc1ccc(C(=O)Nc2ccccc2)cc1NCc1cccc(F)c1F [Example 219, 3-(2,3-Difluoro-benzylamino)-4-methoxy-N-phenyl-benzamide]"
5,982,"COc1ccc(C(=O)Nc2ccccc2)cc1NCc1ccc(F)cc1 [Example 224, 4-Methoxy-3-(4-fluoro-benzylamino)-N-phenyl-benzamide]"
6,224,"COc1ccc(C(=O)Nc2ccccc2)cc1NCc1cccc(Cl)c1 [Example 231, 3-(3-Chloro-benzylamino)-4-methoxy-N-phenyl-benzamide]"
7,86,"COc1ccc(NC(=O)c2ccc(Cl)c(Cl)c2)cc1NCc1cccc(F)c1 [Example 244, 3,4-Dichloro-N-[3-(3-fluoro-benzylamino)-4-methoxy-phenyl]-benzamide]"

# Same assay, conditions: Table 2; concentration not given
row,Structure (SMILES),"h15LO, value given as bare % [%]"
1,"COc1ccc(C(=O)Nc2ccccc2)cc1NCc1ccc(O)c([N+](=O)[O-])c1 [Example 225, 3-(4-Hydroxy-3-nitro-benzylamino)-4-methoxy-N-phenyl-benzamide]",97.88
2,"COc1ccc(C(=O)Nc2ccccc2)cc1NCc1ccc([N+](=O)[O-])c(O)c1 [Example 228, 3-(3-Hydroxy-4-nitro-benzylamino)-4-methoxy-N-phenyl-benzamide]",92.92
3,"COc1ccc(C(=O)Nc2ccccc2)cc1NCc1cccc(C#N)c1 [Example 229, 3-(3-Cyano-benzylamino)-4-methoxy-N-phenyl-benzamide]",92.70
4,"COc1ccc(C(=O)Nc2ccccc2)cc1NCc1ccc(C(C)(C)C)cc1 [Example 232, 3-(4-tert-Butyl-benzylamino)-4-methoxy-N-phenyl-benzamide]",80.36
5,"COc1ccc(C(=O)Nc2ccccc2)cc1NCc1ccc(C#N)cc1 [Example 233, 3-(4-Cyano-benzylamino)-4-methoxy-N-phenyl-benzamide]",73.46
6,"COc1ccc(C(=O)Nc2ccc(F)c(F)c2)cc1NCc1ccc(C(=O)O)cc1 [Example 234, 4-{[5-(3,4-Difluoro-phenylcarbamoyl)-2-methoxy-phenylalino]-methyl}-benzoic Acid]",71.56
7,"CCCOc1ccc(CNc2cc(C(=O)Nc3ccccc3)ccc2OC)cc1 [Example 235, 4-Methoxy-3-(4-propoxy-benzylamino)-N-phenyl-benzamide]",67.26
8,"COc1ccc(C(=O)Nc2ccccc2)cc1NCc1ccc(-c2ccccc2)cc1 [Example 236, 3-[(Biphenyl-4-ylmethyl)-amino]-4-methoxy-N-phenyl-benzamide]",64.09
9,"COc1ccc(C(=O)Nc2ccccc2)cc1NCc1ccc(C)cc1 [Example 237, 4-Methoxy-3-(4-methyl-benzylamino)-N-phenyl-benzamide]",64
10,"COc1ccccc1CNc1cc(C(=O)Nc2ccccc2)ccc1OC [Example 238, 4-Methoxy-3-(2-methoxy-benzylamino)-N-phenyl-benzamide]",60
11,"CCCCc1ccc(CNc2cc(C(=O)Nc3ccccc3)ccc2OC)cc1 [Example 239, 3-(4-Butyl-benzylamino)-4-methoxy-N-phenyl-benzamide]",58.44
12,"COc1ccc(C(=O)Nc2ccccc2)cc1NCc1cccc(C(=O)O)c1 [Example 241, 3-[(2-Methoxy-5-phenylcarbamoyl-phenylamino)-methyl]-benzoic Acid]",56.33
13,"COc1ccc(C(=O)Nc2ccccc2)cc1NCc1ccc(C)c(C)c1 [Example 242, 3-(3,4-Dimethyl-benzylamino)-4-methoxy-N-phenyl-benzamide]",50
14,"COc1ccc(C(=O)Nc2ccccc2)cc1NCc1ccc(C(C)C)cc1 [Example 243, 3-(4-Isopropyl-benzylamino)-4-methoxy-N-phenyl-benzamide]",49.19

# Second part, the molecule after the results:
row,"h15LO, value given as bare % [%]",Structure (SMILES)
1,86.96,"COc1ccc(NC(=O)c2ccc(F)c(F)c2)cc1NS(=O)(=O)c1cccc(C#N)c1 [Example 205, 3,4-Difluoro-N-[3-(3-cyano-benzenesulfonylamino)-4-methoxy-phenyl]-benzamide]"
2,45.56,"O=C(Nc1ccc(F)c(NS(=O)(=O)c2cccs2)c1)c1ccc(F)c(F)c1 [Example 206, 3,4-Difluoro-N-[4-fluoro-3-(thiophene-2-sulfonylamino)-phenyl]-benzamide]"
3,41.59,"COc1ccc(NC(=O)Nc2ccc(Cl)c(Cl)c2)cc1NS(=O)(=O)c1cccs1 [Example 207, Thiophene-2-sulfonic acid {5-[3-(3,4-dichloro-phenyl)-ureido]-2-methoxy-phenyl}-amide]"
4,96.21,"CCN(CC)c1ccc(CNc2cc(C(=O)Nc3ccc(F)c(F)c3)ccc2OC)cc1 [Example 226, 3-(4-Diethylamino-benzylamino)-4-methoxy-N-(3,4-difluoro-phenyl)-benzamide]"
5,95.74,"COc1ccc(C(=O)Nc2ccc(F)c(F)c2)cc1NCc1ccccc1 [Example 227, 3-Benzylamino-4-methoxy-N-(3,4-difluoro-phenyl)-benzamide]"
6,92.57,"COc1ccc(C(=O)Nc2ccc(F)c(F)c2)cc1NCc1cccc(C(=O)O)c1 [Example 230, 3-{[5-(3,4-Difluoro-phenylcarbamoyl)-2-methoxy-phenylamino]-methyl}-benzoic Acid]"
7,58.09,"COc1ccc(C(=O)Nc2ccc(Cl)c(Cl)c2)cc1NCc1cccc(F)c1 [Example 240, 3-(3-Fluoro-benzylamino)-4-methoxy-N-(3,4-dichloro-phenyl)-benzamide]"
